Experimental data reported in US20170184612A1, “USE OF LEUKOCYTES AND NOVEL BIOMARKERS IN THE DIAGNOSIS, CONFIRMATION, AND TREATMENT OF A NEUROLOGICAL DISORDER” (The Trustees of Columbia University in the City of New York, priority 2014, published 2017).

Tests used:
[1] = test system: peripheral blood mononuclear cells (PBMC), T cells; assay: ELISpot assay, gamma-interferon release (SFC) after stimulation with a-synuclein epitope pools; type: cell-based, human; conditions: for Pool +: IFNg, Pool Stimulated, number of donors with a positive response, Donors tested 1
In short: (§1)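 Cytokine-secreting T cells were enumerated as SFC following 22 h peptide-pool stimulation of gradient-purified PBMC at 37 C. A threshold of 20 SFC per million cells defined confirmed release; group differences were assessed by Mann-Whitney U test.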

[2] = test system: peripheral blood mononuclear cells (PBMC), T cells; assay: ELISpot assay, IL-5 release (SFC) after stimulation with a-synuclein epitope pools; type: cell-based, human
In short: as §1

[3] = Patients Summary, PD patients, of donors tested (peptide)
[4] = Patients Summary, PD patients, single peptide
[5] = Patients Summary, Phospho pool peptides
[6] = Patients Summary, Phospho pool peptides, 10 donors tested
[7] = peptides of pool 'Poshpho', 8 donors tested
[8] = peptides of pool 'Poshpho', 8 donors tested, number of donors positive
[9] = number of donors positive to the single peptide, second 'Pool Stimulated' section (from r296), 12 donors tested
[10] = peptide + / donors tested (peptide), second 'Pool Stimulated' section (from r296), 12 donors tested
[11] = single peptide, second 'Pool Stimulated' section (from r296), 12 donors tested

| Substance | Pool + [1] | IFNg Peptide + (donors positive to the peptide) [1, 3] | IFNg Avg SFC [1, 4] [SFC] | IFNg Response Frequency [1, 4] [%] | IFNg Total SFC [1, 4] [SFC] | IL-g Peptide + (donors positive to the peptide) [2, 3] | IL-g Response Frequency [2, 4] [%] | IL-g Total SFC [2, 4] [SFC] | IFNg Peptide + [1, 9] | IFNg Response Frequency [1, 10] [%] | IL-g Peptide + [2, 9] | IL-g Response Frequency [2, 10] [%] | IL-g Total SFC [2, 11] [SFC] | IFNg Total SFC [1, 11] [SFC] | also measured |
| --- | --- | --- | --- | --- | --- | --- | --- | --- | --- | --- | --- | --- | --- | --- | --- |
| 3521.0037 (LYVGSKTKEG; listed as Homo sapiens) | 0 | 1 | 248 | 17 | 248 | 1 | 17 | 754 | – | – | – | – | – | – | IL-g Avg SFC [2, 4]: 754 SFC |
| 3521.0038 (EMPSEEGYQD; listed as Homo sapiens) | 0 | 0 | – | 0 | 0 | 0 | 0 | 0 | – | – | – | – | – | – | Pool + ([1]; pool 'Phospho' (phosphorylated peptides)): 1; IFNg Avg SFC [1, 5]: 502 SFC; IFNg Response Frequency [1, 5]: 30%; IFNg Total SFC [1, 5]: 1507 SFC; IFNg Peptide + (donors positive to the peptide) [1, 6]: 3; IFNg Avg SFC [1, 7]: 40 SFC; IFNg Response Frequency [1, 7]: 13%; IFNg Total SFC [1, 7]: 40 SFC; IFNg Peptide + [1, 8]: 1; IL-g Avg SFC [2, 5]: 620 SFC; IL-g Response Frequency [2, 5]: 10%; IL-g Total SFC [2, 5]: 620 SFC; IL-g Peptide + (donors positive to the peptide) [2, 6]: 1; IL-g Avg SFC [2, 7]: 33 SFC; IL-g Response Frequency [2, 7]: 13%; IL-g Total SFC [2, 7]: 33 SFC; IL-g Peptide + [2, 8]: 1 |
| 3521.0041 (EGILEDMPVD; listed as Homo sapiens) | 0 | 0 | – | 0 | 0 | 0 | 0 | 0 | 0 | 0 | 0 | 0 | 0 | – | – |
| 3521.0042 (AGKTKEGVLY; listed as Homo sapiens) | 0 | 1 | 31 | 13 | 31 | 0 | 0 | 0 | 0 | 0 | 0 | 0 | 0 | 0 | – |
| 3521.0044 (GVTAVAQKTV; listed as Homo sapiens) | 0 | 0 | – | 0 | 0 | 0 | 0 | 0 | 0 | 0 | 0 | 0 | 0 | 0 | – |
| 3521.0045 (KTKKGVVHGV; listed as Homo sapiens) | – | 1 | 133 | 17 | 133 | 0 | 0 | 0 | – | – | – | – | – | – | – |
| 3521.0047 (IAAATGFVKK; listed as Homo sapiens) | 0 | 0 | – | 0 | 0 | 0 | 0 | 0 | 0 | 0 | 0 | 0 | 0 | 0 | – |
| 3521.0048 (EQVTNVGGAV; listed as Homo sapiens) | 0 | 0 | – | 0 | 0 | 0 | 0 | 0 | 0 | 0 | 0 | 0 | 0 | 0 | – |
| 3521.0049 (APQEGILEDM; listed as Homo sapiens) | 0 | 0 | – | 0 | 0 | 0 | 0 | 0 | 0 | 0 | 0 | 0 | 0 | 0 | – |
| 3521.0051 (EEGAPQEGIL; listed as Homo sapiens) | 1 | 1 | 427 | 25 | 427 | 0 | 0 | 0 | 1 | 50 | 1 | 50 | 1028 | 554 | IFNg Avg SFC [1, 11]: 554 SFC; IL-g Avg SFC [2, 11]: 1028 SFC |
| 3521.0054 (MPVDPDNEAY; listed as Homo sapiens) | 0 | 0 | – | 0 | 0 | 0 | 0 | 0 | 0 | 0 | 1 | 50 | 58 | – | IL-g Avg SFC [2, 11]: 58 SFC |
| 3521.0055 (QEGILEDMPV; listed as Homo sapiens) | 0 | 0 | – | 0 | 0 | 0 | 0 | 0 | 0 | 0 | 1 | 50 | 58 | – | IL-g Avg SFC [2, 11]: 58 SFC |
